Data as given in the NIST ThermoML archive (doi:10.1021/acs.jced.6b00169).

Settings: Fluid (supercritical or subcritical phases), isochoric method

FC(F)(F)/C=C\C(F)(F)F [(Z)-1,1,1,4,4,4-hexafluorobut-2-ene]
Settings | mass density [kg/m3]
444.5 K, 2907.5 kPa | 532.1
444.5 K, 2918.3 kPa | 589.2
445.48 K, 2948.7 kPa | 410.1
445.48 K, 2955 kPa | 451.8
445.49 K, 2960.5 kPa | 496.8
445.49 K, 2967.6 kPa | 556.1
445.49 K, 2979 kPa | 589.2
445.5 K, 2963.5 kPa | 532.1
446.47 K, 2992.8 kPa | 410.1
446.47 K, 3039.9 kPa | 589.2
446.48 K, 3003.8 kPa | 451.8
446.49 K, 3019.2 kPa | 532.1
446.49 K, 3024.7 kPa | 556
446.5 K, 3013.3 kPa | 496.8
447.47 K, 3036.6 kPa | 410.1
447.49 K, 3052.3 kPa | 451.8
447.49 K, 3075.5 kPa | 532
447.49 K, 3102.7 kPa | 589.1
447.5 K, 3083 kPa | 556
447.51 K, 3065.9 kPa | 496.8
448.47 K, 3080.1 kPa | 410.1
448.48 K, 3099.7 kPa | 451.7
448.49 K, 3131.1 kPa | 532
448.49 K, 3165.1 kPa | 589.1
448.5 K, 3117.9 kPa | 496.7
448.5 K, 3140.9 kPa | 556
449.46 K, 3123.1 kPa | 410.1
449.48 K, 3147.7 kPa | 451.7
449.49 K, 3187.7 kPa | 532
449.5 K, 3170.6 kPa | 496.7
449.5 K, 3200.1 kPa | 556
449.5 K, 3229.7 kPa | 589.1
450.46 K, 3166.1 kPa | 410
450.48 K, 3195.5 kPa | 451.7
450.5 K, 3223.3 kPa | 496.7
450.5 K, 3259.2 kPa | 555.9
450.5 K, 3293.6 kPa | 589
450.51 K, 3244.9 kPa | 532
451.47 K, 3209.5 kPa | 410
451.48 K, 3243 kPa | 451.7
451.49 K, 3357.7 kPa | 589
451.5 K, 3275.9 kPa | 496.7
451.5 K, 3318.3 kPa | 555.9
451.51 K, 3300.8 kPa | 531.9
452.47 K, 3252.2 kPa | 410
452.48 K, 3290.8 kPa | 451.7
452.49 K, 3328.2 kPa | 496.6
452.49 K, 3378.2 kPa | 555.9
452.49 K, 3422.9 kPa | 589
452.5 K, 3358.3 kPa | 531.9
453.47 K, 3294.8 kPa | 410
453.48 K, 3200.2 kPa | 348.3
453.49 K, 3338.4 kPa | 451.6
453.49 K, 3381.2 kPa | 496.6
453.49 K, 4021.4 kPa | 734.4
453.49 K, 9923.8 kPa | 962.6
453.5 K, 1586.1 kPa | 87.6
453.5 K, 2978.8 kPa | 261.1
453.5 K, 3415.5 kPa | 531.9
453.5 K, 3438.5 kPa | 555.9
453.5 K, 3477.4 kPa | 589
453.5 K, 3489.4 kPa | 589
453.5 K, 3654.8 kPa | 659.5
453.5 K, 4584 kPa | 789.8
453.5 K, 6552.2 kPa | 883.1
453.51 K, 2439 kPa | 167
453.51 K, 3355.4 kPa | 473.8
453.51 K, 3423.1 kPa | 534.1
453.52 K, 3308.4 kPa | 416.3
463.47 K, 3811.6 kPa | 451.7
463.48 K, 3548.1 kPa | 348.1
463.49 K, 5796.3 kPa | 789.4
463.5 K, 1644.5 kPa | 87.5
463.5 K, 3221.4 kPa | 261
463.5 K, 4145.4 kPa | 588.7
463.5 K, 4465.6 kPa | 659.2
463.5 K, 8195.5 kPa | 882.7
463.51 K, 2573 kPa | 166.9
463.51 K, 3856.7 kPa | 473.6
463.51 K, 4003.3 kPa | 533.8
463.52 K, 3741 kPa | 416.1
463.84 K, 5039.9 kPa | 734
473.46 K, 4282.9 kPa | 451.5
473.49 K, 3889.2 kPa | 347.9
473.49 K, 5297.9 kPa | 658.9
473.49 K, 6084.9 kPa | 733.7
473.49 K, 7031.2 kPa | 789.1
473.5 K, 1702.6 kPa | 87.5
473.5 K, 3458.3 kPa | 260.9
473.5 K, 4828.4 kPa | 588.4
473.5 K, 9855 kPa | 882.3
473.51 K, 2705 kPa | 166.8
473.51 K, 4169.1 kPa | 416
473.51 K, 4592.6 kPa | 533.6
473.52 K, 4360 kPa | 473.3
483.45 K, 4753 kPa | 451.3
483.48 K, 8280.1 kPa | 788.7
483.49 K, 4225.7 kPa | 347.8
483.49 K, 6143.2 kPa | 658.6
483.5 K, 1760.4 kPa | 87.5
483.5 K, 3690.6 kPa | 260.8
483.5 K, 4863.2 kPa | 473.1
483.5 K, 5186.3 kPa | 533.3
483.5 K, 5522.5 kPa | 588.1
483.51 K, 2834.3 kPa | 166.8
483.51 K, 4596.7 kPa | 415.8
483.51 K, 7145.4 kPa | 733.3
493.49 K, 4559.3 kPa | 347.6
493.5 K, 3920 kPa | 260.6
493.5 K, 6223.9 kPa | 587.8
493.51 K, 1817.2 kPa | 87.4
493.51 K, 2962 kPa | 166.7
493.51 K, 5368 kPa | 472.9
503.5 K, 4890.2 kPa | 347.4
503.51 K, 6930.9 kPa | 587.6
